Experimental findings from paper PMC11909056, “Investigation of cholinesterase and α-glucosidase enzyme activities, and molecular docking and dft studies for 1,2-disubstituted cyclopentane derivatives with phenyl and benzyl units” (Molecular Diversity, 2024) are described below.

One assay has as its target α-Glucosidase (Saccharomyces cerevisiae, UniProt P53341). Briefly: α-glucosidase inhibition with p-NPG substrate (Tao et al. method). The format is biochemical. The procedure:
Samples were made by dissolving 20 mg in 20 mL (EtOH:H2O). It was initially combined in 5–200 μL of sample with 700 μL of phosphate buffer (0.15 u/mL, pH 7.4) and 20 μL of enzyme solution [31, 32]. After a pre-incubation period of 10 min at 35 °C, 50 μL of p-NPG was added as the reaction began. Additionally, following the pre-incubation, 50 μL of p-NPG in phosphate buffer (5 mM, pH = 7.4) was added, and the incubation was repeated at 35 °C. A curve was fitted to the data to determine the IC50 and Ki values. […] (pH: 7.4).

Assay [1] has as its target T1, Butyrylcholinesterase (BChE) (Equus caballus, UniProt P81908).
T1 construct: Butyrylcholinesterase from equine serum (CAS No.: 9001–08-5); from tissue; host or cells: equine serum
The assay is described as follows: biochemical. The procedure:
(§1) The Ellman approach was employed to examine the impact of synthetic chemicals on the ability to inhibit AChE and BChE activity. AChI/BChI and DTNB were used to quantify the AChE/BChE activity. […] For different concentrations of the sample solution, 100 μL of buffer (1 M, Tris/HCl, pH 8.0) were used to dissolve 10 μL of the sample solution. […] The incubation was followed by the addition of DTNB (50 μL, 0.5 mM). Lastly, to start the reaction, 50 μL of bChI/aChI were added. […] Then, the activities of AChE/BChE were evaluated.

Assay [2] concerns the target Acetylcholinesterase (AChE) (Electrophorus electricus, UniProt O42275). Briefly: biochemical. The procedure: as §1

Sequence of Acetylcholinesterase (AChE) (O42275 24-633): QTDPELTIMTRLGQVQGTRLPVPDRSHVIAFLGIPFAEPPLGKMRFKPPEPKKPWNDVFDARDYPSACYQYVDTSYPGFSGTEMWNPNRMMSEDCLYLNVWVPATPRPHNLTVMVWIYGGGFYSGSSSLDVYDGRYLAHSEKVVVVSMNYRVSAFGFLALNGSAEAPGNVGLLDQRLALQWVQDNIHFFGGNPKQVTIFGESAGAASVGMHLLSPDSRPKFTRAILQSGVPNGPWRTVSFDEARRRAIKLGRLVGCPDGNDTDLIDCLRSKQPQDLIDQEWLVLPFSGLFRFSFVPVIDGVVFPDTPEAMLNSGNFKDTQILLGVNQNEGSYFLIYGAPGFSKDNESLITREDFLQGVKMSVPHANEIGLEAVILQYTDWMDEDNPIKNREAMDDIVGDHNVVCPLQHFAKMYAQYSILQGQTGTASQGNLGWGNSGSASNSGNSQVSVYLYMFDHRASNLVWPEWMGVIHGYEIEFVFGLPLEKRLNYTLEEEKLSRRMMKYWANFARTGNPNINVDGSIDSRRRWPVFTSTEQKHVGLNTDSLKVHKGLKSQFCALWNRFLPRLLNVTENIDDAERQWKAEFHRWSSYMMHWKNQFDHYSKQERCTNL
T1 sequence (P81908 whole entry): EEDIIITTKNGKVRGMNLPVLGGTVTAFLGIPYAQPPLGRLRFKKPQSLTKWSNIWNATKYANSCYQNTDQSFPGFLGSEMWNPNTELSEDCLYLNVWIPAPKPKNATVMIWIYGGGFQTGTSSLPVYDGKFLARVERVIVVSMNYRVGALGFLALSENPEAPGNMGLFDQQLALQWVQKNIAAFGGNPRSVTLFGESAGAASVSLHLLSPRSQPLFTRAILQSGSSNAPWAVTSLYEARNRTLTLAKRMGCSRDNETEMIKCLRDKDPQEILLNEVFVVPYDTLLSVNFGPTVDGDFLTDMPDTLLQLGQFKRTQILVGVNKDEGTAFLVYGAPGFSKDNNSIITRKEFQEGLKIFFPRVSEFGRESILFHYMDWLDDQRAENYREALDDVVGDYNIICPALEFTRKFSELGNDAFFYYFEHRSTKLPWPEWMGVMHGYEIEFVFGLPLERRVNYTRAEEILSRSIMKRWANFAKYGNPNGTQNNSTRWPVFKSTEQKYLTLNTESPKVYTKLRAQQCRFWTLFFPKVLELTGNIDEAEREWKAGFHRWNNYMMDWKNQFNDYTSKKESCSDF
Sequence of α-Glucosidase (P53341 whole entry): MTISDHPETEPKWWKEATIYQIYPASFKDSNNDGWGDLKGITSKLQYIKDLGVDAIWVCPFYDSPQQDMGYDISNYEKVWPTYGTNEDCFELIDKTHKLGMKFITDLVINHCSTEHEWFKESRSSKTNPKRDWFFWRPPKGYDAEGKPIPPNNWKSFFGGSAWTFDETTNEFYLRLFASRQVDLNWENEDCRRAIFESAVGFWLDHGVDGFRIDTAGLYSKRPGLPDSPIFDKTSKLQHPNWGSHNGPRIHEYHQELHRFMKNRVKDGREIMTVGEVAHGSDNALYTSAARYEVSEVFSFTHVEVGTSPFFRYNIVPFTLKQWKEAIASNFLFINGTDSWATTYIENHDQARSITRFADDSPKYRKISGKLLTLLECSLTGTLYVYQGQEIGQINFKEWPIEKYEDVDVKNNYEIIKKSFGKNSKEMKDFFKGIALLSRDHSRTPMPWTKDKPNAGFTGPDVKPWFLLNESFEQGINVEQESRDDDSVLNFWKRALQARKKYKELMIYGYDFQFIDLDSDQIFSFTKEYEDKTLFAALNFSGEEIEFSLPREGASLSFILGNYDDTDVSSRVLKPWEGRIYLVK

With `COc1ccc(C(=O)C2=C(c3ccc(OC)c(OC)c3OC)CCC2)c(OC)c1OC` [Compound 4, (2,3,4-trimethoxyphenyl)(2-(2,3,4-trimethoxyphenyl)cyclopent-1-en-1-yl)methanone], the IC50 – broadly, the concentration needed to halve the response being measured – against α-Glucosidase came to 41.6 nM; in assay [1] it was 414 nM; in assay [2], 102 nM. For the same molecule, the Ki – broadly, the dissociation constant of the complex between target and ligand, obtained from inhibition or displacement – is 48.9 ± 7.33 nM on α-Glucosidase, 403 ± 32.3 nM in assay [1] and 99.7 ± 11.4 nM in assay [2].
With `COc1ccc(C(=O)C2CCC=C2c2ccc(OC)c(OC)c2OC)c(OC)c1OC` (stereo not drawn) [Compound 5], the IC50 was found to be 39.6 nM on α-Glucosidase, 187 nM in assay [1] and 92.2 nM in assay [2]. Moreover, the Ki on α-Glucosidase came out at 44.7 ± 6.61 nM; in assay [1], 176 ± 23.8 nM; in assay [2], 87.9 ± 7.27 nM.
`COc1ccc(C(=O)CCCCC(=O)c2ccc(OC)c(OC)c2OC)c(OC)c1OC` [Compound 6]: the figures for the IC50 (on α-Glucosidase; in assay [1]; in assay [2]) were 27.2 nM, 225 nM and 189 nM, respectively. Further, the Ki came to 29.1 ± 4.25 nM at α-Glucosidase, 212 ± 13.7 nM in assay [1] and 177 ± 22.6 nM in assay [2].
For the molecule `COc1ccc(C(=O)CCCCC(=O)c2ccc(OC)c(OC)c2OC)c(O)c1OC` [Compound 7], the IC50 is 43.2 nM on α-Glucosidase, 646 nM in assay [1] and 644 nM in assay [2]. The results for the Ki (on α-Glucosidase; in assay [1]; in assay [2]) were 46.5 ± 6.34 nM, 622 ± 35.1 nM and 632 ± 18.9 nM, respectively.
`COc1ccc(C(=O)CCCCC(=O)c2ccc(OC)c(OC)c2O)c(O)c1OC` [Compound 8]: the results for the IC50 (against α-Glucosidase; in assay [1]; in assay [2]) were 36.4 nM, 222 nM and 174 nM, respectively. Also, the Ki on α-Glucosidase came out at 38.5 ± 4.25 nM; in assay [1] it was 209 ± 14.7 nM; in assay [2], 171 ± 14.1 nM.
As to `COc1c(Br)cc(C(=O)C(Br)CCC(Br)C(=O)c2cc(Br)c(OC)c(OC)c2O)c(O)c1OC` (stereo not drawn) [Compound 9], the results for the IC50 (against α-Glucosidase; in assay [1]; in assay [2]) were 21.1 nM, 450 nM and 49.8 nM, respectively. Moreover, the Ki at α-Glucosidase was determined as 25.5 ± 4.46 nM; in assay [1] it was 428 ± 27.4 nM; in assay [2], 45.5 ± 7.35 nM.
Take `COc1ccc(C2=C(/C(=N/NC(C)=O)c3ccc(OC)c(OC)c3OC)CCC2)c(OC)c1OC` [Compound 10, (Z)-N'-((2,3,4-Trimethoxyphenyl)(2-(2,3,4-trimethoxyphenyl)cyclopent-1-en-1-yl)methylene)acetohydrazide]: the IC50 was 28.4 nM against α-Glucosidase, 135 nM in assay [1] and 205 nM in assay [2]. The Ki came out at 31.2 ± 5.54 nM at α-Glucosidase, 131 ± 14.5 nM in assay [1] and 196 ± 13.7 nM in assay [2].
`COc1ccc(CC2CCCC2c2ccc(OC)c(OC)c2OC)c(OC)c1OC` (stereo not drawn) [Compound 11, 1,2,3-Trimethoxy-4-(2-(2,3,4-trimethoxybenzyl)cyclopentyl)benzene]: the IC50 was determined as 33.4 nM against α-Glucosidase, 155 nM in assay [1] and 170 nM in assay [2]. In addition, the values for the Ki (on α-Glucosidase; in assay [1]; in assay [2]) were 38.1 ± 5.48 nM, 145 ± 15.5 nM and 151 ± 13.3 nM, respectively.
As to `COc1c(Br)c(Br)c(CC2CCCC2c2c(Br)c(Br)c(OC)c(OC)c2OC)c(OC)c1OC` (stereo not drawn) [Compound 12, 1,2-Dibromo-3-(2-(2,3-dibromo-4,5,6-trimethoxybenzyl)cyclopentyl)-4,5,6-trimethoxybenzene], the IC50 against α-Glucosidase worked out at 23.9 nM; in assay [1], 92.7 nM; in assay [2], 65.5 nM. Also, the Ki amounted to 27.4 ± 5.17 nM at α-Glucosidase, 84.3 ± 9.92 nM in assay [1] and 61.1 ± 5.26 nM in assay [2].
Consider `COc1c(Br)cc(C2CCCC2Cc2c(Br)c(Br)c(OC)c(OC)c2OC)c(OC)c1OC` (stereo not drawn) [Compound 13, 1,2-Dibromo-3-((2-(5-bromo-2,3,4-trimethoxyphenyl)cyclopentyl)methyl)-4,5,6-trimethoxybenzene], for which the results for the IC50 (against α-Glucosidase; in assay [1]; in assay [2]) were 31.6 nM, 217 nM and 124 nM, respectively. Besides, the Ki on α-Glucosidase was determined as 35.6 ± 3.95 nM; in assay [1] it was 205 ± 17.4 nM; in assay [2], 108 ± 5.14 nM.
